Assay results: patent publication US20230339835A1, “2,3,5-TRIMETHYL-6-NONYLCYCLOHEXA-2,5-DIENE-1,4-DIONE FOR SUPPRESSING AND TREATING ALPHA-SYNUCLEINOPATHIES, TAUOPATHIES, AND OTHER DISORDERS” (PTC THERAPEUTICS, INC., priority 2018, published 2023)
Converted amounts (≈) assume the structure as drawn. Marks after values point to notes of the source that are not given here.

Key:
[1] = Solubility in simulated fluids and water; format: physicochemical
Protocol: Solubility of Pattern A and melted solid was assessed in Fasted-State Simulated Gastric Fluid (FaSSGF), Fed-State Simulated Intestinal Fluid (FeSSIF), and Fasted-State Simulated Intestinal Fluid (FaSSIF), water, and 0.5% methyl cellulose+2% Tween80 in water. Five foil-covered 4 mL vials were prepared with 11-13 mg of as-received material (ID-1-1), 10 mm stir bars were included. Five foil-covered 4 mL vials containing between 11-13 mg of C9 were melted on a hot plate at 70° C. for 10 min and cooled to room temperature for 5 min, 10 mm stir bars were included.
Slurries were prepared with the as-received material ID-1-1 (Pattern A) and melted C9, each in 2.5 mL of simulated fluids (including 0.5% methyl cellulose+2% Tween80 in water), or water. The samples containing melted active pharmaceutical ingredient (API) were sonicated briefly, as they appeared to contain clumps of material. […] For solubility analysis 1 mL of each sample was pipetted into a syringe filter, the first 0.5 mL was filtered back into the source vial and the remaining 0.5 mL was filtered into HPLC vials with low volume inserts.
The response factor calculated with the calibration points was used to determine the concentrations of API in the simulated fluids and water. Calibration samples were prepared with as-received material (ID-1-1) in ACN. The concentrations and peak areas for each calibration point were plotted and a response factor calculated for solubility assessment.
Due to high pressures observed with the UPLC column, a different column and a modified method was employed for 24 h data points with 0.5% methyl cellulose+2% Tween80 in water, and 24 h in water (ID-30-4, ID-30-9 and ID-30-10). HPLC samples of ID-30-4 and 30-9 (those containing the methyl cellulose/Tween80 mixture) were diluted 10× with ACN. These samples plus a new set of injections of the calibration points were analyzed, a new response factor was determined, and the solubility of the remaining samples was calculated (response factor: 8084.7908; R2: 0.9989).

[2] = Humidification cycling by dynamic vapor sorption (DVS); format: physicochemical
Protocol: As-received material (ID 1-1) was subjected to humidification cycling by dynamic vapor sorption (DVS) instrument. The material underwent a 0.01% change in mass in the 15-75% relative humidity range, and a 0.08% change in mass over the full range of 2-95% relative humidity. Following humidification cycling, the solid was analyzed by XRPD.

[3] = Solid form stability, one week at 75% RH and 40° C.; format: physicochemical; settings: 7 days, 75% relative humidity
Protocol: The solid form stability of the material was assessed over one week. 49.0 mg of ID-1-1 was placed inside of a foil-covered 4 mL vial, which was covered with a KimWipe. This vial was placed inside a 20 mL vial containing saturated aqueous sodium chloride. The vial was placed on a hot plate at 40° C. for 7 days, creating an atmosphere of 75% relative humidity in the system. After 7 days, the solid was sampled for HPLC (ID-4-1).
A sample of the stressed material was plated and analyzed by XRPD; the observed pattern was Pattern A. The XRPD data is shown in FIG. 16. Microscopy images of ID-4-1 were captured at 100× and 400× magnification. The images are shown in FIG. 17A (100×) and FIG. 17B (400×).

[4] = tested on: C57Bl/6 mice, MPTP-induced model of PD; test: Mouse MPTP model of Parkinson's Disease, open field locomotor assay; format: in vivo; settings: MPTP 60 mg/kg (3 x 20 mg/kg at two-hour intervals)
From the text: Animals. Species: Mouse. Strain: C57Bl/6. Source of Animals: Charles River. Age: 6 to 7 weeks. Sex: Male. Randomization: Animals were assigned randomly to treatment groups. Blinding of Study: Experimenters were blinded to the experimental treatments
Housing and Feeding. Acclimation/Conditioning: Not less than three days. Housing: Mice were housed on a 12 hr light/dark cycle (lights on 6:00 AM) No more than 4 mice per cage. Ventilated cage rack system. Diet: Standard rodent chow and water ad libitum.
Design Parameters. Route(s) of administration: PO. Dose Volume: PO: 5 mL/kg. Formulation(s): formulated by Melior according to directions from BioElectron. Vehicle-sesame oil (Spectrum Chemical, NF Catalog #SE130, CAS #8008-74-0). Dose Levels: 300 mg/kg. Dose Frequency: QD starting Day −2 (MPTP=Day 0) and until Day 7. Study duration: 11 days. Pretreatment time (up to 2 hrs): For Day 0 (MPTP Day): 30 min, Pretreatment time for Open Field Assay/Locomotor Activity (OFA/LMA) assay: 1 hr. Number of Groups: 3. Number of animals per group: 10. Total number of animals: 30 (in the study), 42 animals total (To ensure a proper power analysis of at least 10 animals/group, for all groups receiving MPTP, 4 additional animals were added to mitigate study impacts if there were MPTP-induced fatalities).
MPTP Treatment. MPTP was formulated in phosphate buffered saline and administered to mice three times at a dose of 20 mg/kg (1 mg/mL delivered at 20 mL/kg) at two-hour intervals (final dose of MPTP=60 mg/kg).
Locomotor activity. One day prior (baseline) and on Day 7 after MPTP administration (Day (−1) and Day 7), mice were monitored for various aspects of locomotor function using a fully automated open-field apparatus (Med-Associates, Inc). The apparatus consisted of a 10.75″×10.75″ arena enclosed in a sound-attenuated box, equipped with the fan and house light. […]
Data analysis. Data were averaged and are expressed as the average±SEM.
Data were analyzed by one-way ANOVA followed by a post-hoc tests. p-values of less than 0.05 were considered to be statistically significant from control.

Row | Solubility at 24 hours ([1]; 0.5% MC + 2% Tween80 (aq), Phenomenex Luna Phenyl Hexyl HPLC column and modified method) [µg/mL] | Solubility at 24 hours (mg/mL) ([1]; 0.5% MC + 2% Tween80 (aq), Phenomenex Luna Phenyl Hexyl HPLC column and modified method, listed as A) | Conc. (mg/mL) at 30 min ([1]; 0.5% MC + 2% Tween80 (aq.)) [mg/mL] | Conc. (mg/mL) at 30 min ([1]; FaSSGF) | Solubility at 24 hours (mg/mL) ([1]; FaSSGF) | Conc. (mg/mL) at 30 min ([1]; FaSSIF) [mg/mL] | Solubility at 24 hours (mg/mL) ([1]; FaSSIF) | Conc. (mg/mL) at 30 min ([1]; FeSSIF) [mg/mL] | Solubility at 24 hours ([1]; FeSSIF) [µg/mL] | Conc. (mg/mL) at 30 min ([1]; water) | Solubility at 24 hours (mg/mL) ([1]; water) | DVS Change Mass (wt. %) ([2]; 2-95% RH) | DVS Change Mass (wt. %) ([2]; 15-75% RH) | change in mass (DVS) ([2]; 15-75% relative humidity range) [%] | hygroscopicity ([2]; DVS humidification cycling) | change in mass (DVS) ([2]; full range of 2-95% relative humidity) [%] | XRPD pattern of stressed material [3] | impurities by HPLC in stability sample [3] | Compound | depletion of dopamine in the striatum [4] [%]
1 | 310 | 0.31# mg/mL | 0.53 | BDL | BDL | 0.01 | BDL | 0.29 | 200 (≈ 724 µM) | BDL | BDL | 0.08 | 0.01 | 0.01 | not hygroscopic | 0.08 | Pattern A | did not show any impurities | CCCCCCCCCC1=C(C)C(=O)C(C)=C(C)C1=O [Pattern A, 2,3,5-trimethyl-6-nonylcyclohexa-2,5-diene-1,4-dione] | 
2 |  |  |  |  |  |  |  |  |  |  |  |  |  |  |  |  |  |  | CN1CC=C(c2ccccc2)CC1 [MPTP, 1-methyl-4-phenyl-1,2,3,6-tetrahydropyridine, reference compound] | ~74
